Measured values published in patent US9187467B2, “2-phenyl benzothiazole linked imidazole compounds as potential anticancer agents and process for the preparation thereof” (Council of Scientific and Industrial Research, priority 2012, dated 2015).

How the values were obtained:
786-0 = experiment: SRB anticancer assay, renal; assay type: cell-based, human; conditions: for GI50: Homo sapiens, 786-0, 48 h
SR = experiment: SRB anticancer assay, leukemia; assay type: cell-based, human; conditions: Homo sapiens, 48 h
T-47D = experiment: SRB anticancer assay, breast; assay type: cell-based; conditions: Homo sapiens, T47D, 48 h
[1] = test system: MCF-7 (Breast carcinoma) cells; experiment: Cell cycle distribution by flow cytometry (FACS); assay type: cell-based; conditions: MCF-7 cells, 2 μM, 24h
Method: FIG. 1 represents FACS analysis of cell cycle distribution of MCF-7 cells after treatment with compounds CA-4, 21a, 21d, 4c, 6d, 6e, 6f, 7d, 7h and 7j at 2 μM concentration for 24h and control cells are the cells treated with DMSO (0.25%).
(§1) In order to investigate the mechanism underlying the anti-proliferative effect of the compounds the cell cycle distribution was analyzed in K562 (Leukemia) and MCF-7 (Breast carcinoma) cell lines by flow cytometry. Compounds CA-4, 21a, 21d, 4c, 6d, 6e, 6f, 7d, 7h and 7j have shown 1.72%, 14%, 12%, 14%, 12%, 14%, 14%, 16%, 16% &12% in K562 cells and 49.63%, 21%, 20%, 18%, 21%, 21%, 21%, 24%, 23% and 23% in MCF-7 cell line respectively. […] Thus compound 7d was considered for further studies (FIG. 1).

SF-539 = experiment: SRB anticancer assay, CNS; assay type: cell-based, human; set-up: Log10GI50: unit not given here; conditions: for GI50: Homo sapiens, SF-539, 48 h
OVCAR-8 = experiment: SRB anticancer assay, ovarian; assay type: cell-based, human; set-up: Log10GI50: unit not given here; conditions: for GI50: Homo sapiens, OVCAR-8, 48 h
RXF 393 = experiment: SRB anticancer assay, renal; assay type: cell-based, human; set-up: Log10GI50: unit not given here; conditions: for GI50: Homo sapiens, RXF 393, 48 h
SF-268 = experiment: SRB anticancer assay, CNS; assay type: cell-based, human; set-up: Log10GI50: unit not given here; conditions: for GI50: Homo sapiens, SF-268, 48 h
SK-OV-3 = experiment: SRB anticancer assay, ovarian; assay type: cell-based, human; conditions: Homo sapiens, SK-OV-3, 48 h
MCF7 = experiment: SRB anticancer assay, breast; assay type: cell-based, human; conditions: Homo sapiens, MCF7, 48 h
BT-549 = experiment: SRB anticancer assay, breast; assay type: cell-based, human; conditions: Homo sapiens, BT-549, 48 h
SN12C = experiment: SRB anticancer assay, renal; assay type: cell-based, human; set-up: Log10GI50: unit not given here; conditions: for GI50: Homo sapiens, 48 h
SK-MEL-28 = experiment: SRB anticancer assay, melanoma; assay type: cell-based, human; set-up: Log10GI50: unit not given here; conditions: for GI50: Homo sapiens, SK-MEL-28, 48 h
NCI-H322M = experiment: SRB anticancer assay, non-small lung; assay type: cell-based, human; conditions: Homo sapiens, 48 h
NCI-H522 = experiment: SRB anticancer assay, non-small lung; assay type: cell-based, human; set-up: Log10GI50: unit not given here; conditions: for GI50: Homo sapiens, NCI-H522, 48 h
SNB-19 = experiment: SRB anticancer assay, CNS; assay type: cell-based, human; set-up: Log10GI50: unit not given here; conditions: for GI50: Homo sapiens, SNB-19, 48 h
ACHN = experiment: SRB anticancer assay, renal; assay type: cell-based, human; set-up: Log10GI50: unit not given here; conditions: for GI50: Homo sapiens, 48 h
LOX IMVI = experiment: SRB anticancer assay, melanoma; assay type: cell-based, human; set-up: Log10GI50: unit not given here; conditions: for GI50: Homo sapiens, 48 h
NCI-H460 = experiment: SRB anticancer assay, non-small lung; assay type: cell-based, human; conditions: Homo sapiens, NCI-H460, 48 h
K562 (Leukemia) cells = experiment: Cell cycle distribution by flow cytometry; assay type: cell-based
Method: as §1

NCI-H23 = experiment: SRB anticancer assay, non-small lung; assay type: cell-based, human; conditions: for GI50: Homo sapiens, NCI-H23, 48 h
OVCAR-5 = experiment: SRB anticancer assay, ovarian; assay type: cell-based, human; conditions: Homo sapiens, OVCAR-5, 48 h
A498 = experiment: SRB anticancer assay, renal; assay type: cell-based, human; set-up: Log10GI50: unit not given here; conditions: for GI50: Homo sapiens, A498, 48 h
NCI-H226 = experiment: SRB anticancer assay, non-small lung; assay type: cell-based, human; conditions: Homo sapiens, NCI-H226, 48 h
UACC-62 = experiment: SRB anticancer assay, melanoma; assay type: cell-based, human; conditions: for GI50: Homo sapiens, UACC-62, 48 h
U251 = experiment: SRB anticancer assay, CNS; assay type: cell-based, human; set-up: Log10GI50: unit not given here; conditions: for GI50: Homo sapiens, U-251, U251, 48 h
IGROV1 = experiment: SRB anticancer assay, ovarian; assay type: cell-based, human; conditions: Homo sapiens, IGROV-1; IGROV1, 48 h
SK-MEL-2 = experiment: SRB anticancer assay, melanoma; assay type: cell-based, human; conditions: Homo sapiens, SK-MEL-2, 48 h
HL-60 (TB) = experiment: SRB anticancer assay, leukemia; assay type: cell-based, human; set-up: Log10GI50: unit not given here; conditions: for GI50: Homo sapiens, HL-60, 48 h
DU-145 = experiment: SRB anticancer assay, prostate; assay type: cell-based, human; set-up: Log10GI50: unit not given here; conditions: for GI50: Homo sapiens, DU-145, 48 h
PC-3 = experiment: SRB anticancer assay, prostate; assay type: cell-based, human; set-up: Log10GI50: unit not given here; conditions: for GI50: Homo sapiens, PC-3, 48 h
UO-31 = experiment: SRB anticancer assay, renal; assay type: cell-based, human; set-up: Log10GI50: unit not given here; conditions: for GI50: Homo sapiens, UO-31, 48 h

## COc1cc(OC)cc(-c2cncn2-c2ccc(-c3nc4cc(OC)cc(OC)c4s3)cc2)c1 [Compound 6d, 2-(4-(5-(3,5-Dimethoxyphenyl)-1H-imidazol-1-yl)phenyl)-5,7-dimethoxybenzo[d]thiazole]
786-0
  GI50: 7.6 µM
SR
  GI50: 3.3 µM
T-47D
  GI50: 3.17 µM
[1]
  cells in G2/M phase: 21%
SF-539
  GI50: 5.76 µM
OVCAR-8
  GI50: 14.5 µM
RXF 393
  GI50: 6.58 µM
SF-268
  GI50: 11.3 µM
SK-OV-3
  GI50: 4.69 µM
MCF7
  GI50: 3.82 µM
BT-549
  GI50: 5.77 µM
SN12C
  GI50: > 100 µM
SK-MEL-28
  GI50: > 100 µM
NCI-H322M
  GI50: > 100 µM
NCI-H522
  GI50: 2.49 µM
SNB-19
  GI50: > 100 µM
ACHN
  GI50: > 100 µM
LOX IMVI
  GI50: 5.48 µM
NCI-H460
  GI50: 4.41 µM
K562 (Leukemia) cells
  cells in G2/M phase: 12%
NCI-H23
  GI50: 10.3 µM
OVCAR-5
  GI50: > 100 µM
A498
  GI50: 3.15 µM
NCI-H226
  GI50: 18.5 µM
UACC-62
  GI50: 4.75 µM
U251
  GI50: 4.76 µM
IGROV1
  GI50: 5.07 µM
SK-MEL-2
  GI50: 9.69 µM

## COc1cc(OC)c2sc(-c3ccc(-n4cncc4-c4ccc(OC)c(OC)c4)cc3)nc2c1 [Compound 6e, 2-(4-(5-(3,4-Dimethoxyphenyl)-1H-imidazol-1-yl)phenyl)-5,7-dimethoxybenzo[d]thiazole]
HL-60 (TB)
  GI50: 3.09 µM
786-0
  GI50: > 100 µM
SR
  GI50: 3.03 µM
T-47D
  GI50: 4.15 µM
[1]
  cells in G2/M phase: 21%
SF-539
  GI50: > 100 µM
OVCAR-8
  GI50: 21.2 µM
SF-268
  GI50: 9.96 µM
SK-OV-3
  GI50: > 100 µM
MCF7
  GI50: 5.36 µM
BT-549
  GI50: 3.78 µM
SN12C
  GI50: > 100 µM
SK-MEL-28
  GI50: > 100 µM
NCI-H322M
  GI50: > 100 µM
NCI-H522
  GI50: 5.26 µM
SNB-19
  GI50: > 100 µM
ACHN
  GI50: > 100 µM
LOX IMVI
  GI50: > 100 µM
NCI-H460
  GI50: 6.06 µM
K562 (Leukemia) cells
  cells in G2/M phase: 14%
NCI-H23
  GI50: > 100 µM
OVCAR-5
  GI50: > 100 µM
A498
  GI50: 2.15 µM
NCI-H226
  GI50: 6.44 µM
DU-145
  GI50: 27.9 µM
UACC-62
  GI50: 8.14 µM
U251
  GI50: 9.19 µM
IGROV1
  GI50: 56.1 µM
PC-3
  GI50: 3.66 µM
SK-MEL-2
  GI50: 41.4 µM
UO-31
  GI50: 31.7 µM

## COc1cc(OC)c2sc(-c3ccc(-n4cncc4-c4cc(OC)c(OC)c(OC)c4)cc3)nc2c1 [Compound 6f, 5,7-Dimethoxy-2-(4-(5-(3,4,5-trimethoxyphenyl)-1H-imidazol-1-yl)phenyl)benzo[d]thiazole]
HL-60 (TB)
  GI50: 3.3 µM
786-0
  GI50: 7.38 µM
SR
  GI50: 3.24 µM
T-47D
  GI50: 3.27 µM
[1]
  cells in G2/M phase: 21%
SF-539
  GI50: 8.59 µM
OVCAR-8
  GI50: > 100 µM
RXF 393
  GI50: 2.8 µM
SK-OV-3
  GI50: > 100 µM
MCF7
  GI50: 3.88 µM
BT-549
  GI50: 3.35 µM
SN12C
  GI50: > 100 µM
NCI-H322M
  GI50: > 100 µM
NCI-H522
  GI50: 3.27 µM
SNB-19
  GI50: > 100 µM
ACHN
  GI50: 6.67 µM
LOX IMVI
  GI50: 5.4 µM
NCI-H460
  GI50: 4.67 µM
K562 (Leukemia) cells
  cells in G2/M phase: 14%
NCI-H23
  GI50: 6.15 µM
OVCAR-5
  GI50: > 100 µM
A498
  GI50: 1.83 µM
DU-145
  GI50: > 100 µM
UACC-62
  GI50: 4.14 µM
U251
  GI50: 4.15 µM
IGROV1
  GI50: 5.87 µM
PC-3
  GI50: 2.54 µM
SK-MEL-2
  GI50: 6.09 µM
UO-31
  GI50: 2.27 µM

## COc1cc2nc(-c3ccc(-n4cncc4-c4ccc(N)cc4)cc3)sc2c(OC)c1OC [Compound 7h, 4-(1-(4-(5,6,7-Trimethoxybenzo[d]thiazol-2-yl)phenyl)-1H-imidazol-5-yl)benzenamine]
HL-60 (TB); HL-60(TB), present compounds
  Log10GI50: −6.00
HL-60 (TB)
  GI50: 0.989 µM
786-0; 786-0, present compounds
  Log10GI50: −5.20 log10 M
786-0
  GI50: 6.26 µM
SR
  GI50: 1.4 µM
T-47D
  GI50: 1.82 µM
[1]
  cells in G2/M phase: 23%
SF-539
  GI50: 7.14 µM
SF-539; SF-539, present compounds
  Log10GI50: −5.15
OVCAR-8
  GI50: 4.23 µM
OVCAR-8; OVCAR-8, present compounds
  Log10GI50: −5.37
RXF 393
  GI50: 4.41 µM
RXF 393; RXF 393, present compounds
  Log10GI50: −5.36
SF-268
  GI50: 12.3 µM
SF-268; SF-268, present compounds
  Log10GI50: −4.91
SK-OV-3
  GI50: 11.7 µM
MCF7
  GI50: 3.02 µM
BT-549
  GI50: 1.59 µM
SN12C
  GI50: 8.95 µM
SN12C; present compounds
  Log10GI50: −5.05
SK-MEL-28
  GI50: > 100 µM
SK-MEL-28; SK-MEL-28, present compounds
  Log10GI50: >−4.0
NCI-H322M
  GI50: 2.07 µM
NCI-H522
  GI50: 2.74 µM
NCI-H522; NCI-H522, present compounds
  Log10GI50: −5.56
SNB-19
  GI50: 12.3 µM
SNB-19; SNB-19, present compounds
  Log10GI50: −4.91
ACHN
  GI50: 8.56 µM
ACHN; present compounds
  Log10GI50: −5.07
LOX IMVI
  GI50: 3.65 µM
LOX IMVI; present compounds
  Log10GI50: −5.44
NCI-H460
  GI50: 5.13 µM
K562 (Leukemia) cells
  cells in G2/M phase: 16%
NCI-H23
  GI50: 3.87 µM
NCI-H23; NCI-H23, present compounds
  Log10GI50: −5.41 log10(M)
OVCAR-5
  GI50: 34.3 µM
A498; A498, present compounds
  Log10GI50: −5.67
A498
  GI50: 2.13 µM
NCI-H226
  GI50: 4.73 µM
DU-145; DU-145, present compounds
  Log10GI50: −5.04
DU-145
  GI50: 7.25 µM
UACC-62
  GI50: 5.45 µM
UACC-62; UACC-62, present compounds
  Log10GI50: −5.26 log10 M
U251
  GI50: 3.84 µM
U251; U251, present compounds
  Log10GI50: −5.42
IGROV1
  GI50: 2.63 µM
PC-3
  GI50: 3.02 µM
PC-3; PC-3, present compounds
  Log10GI50: −5.52
UO-31
  GI50: 1.55 µM
UO-31; UO-31, present compounds
  Log10GI50: −5.81
